Test results published in PMC12169614, “Exploring Long Arm Amide-Linked Side Chains in the Design of Antifungal Azole Inhibitors of Sterol 14α-Demethylase (CYP51)” (Journal of Medicinal Chemistry, 2025).

How the values were obtained:
Y2411 Endog. ScCYP51 = assay: MIC80 determination, strain Y2411; format: cell-based, S. cerevisiae; details: Saccharomyces cerevisiae
Experimental: (§1) Cells were seeded at an OD600 nm of 0.005 (1.5 × 10^4 CFU), and the plates were incubated at 30 °C with shaking at 200 rpm for 48 h for S. cerevisiae strains and 24 h for C. albicans . Cell growth was assessed by measuring the OD600 nm using a Synergy 2 multimode plate reader (BioTek Instruments, VT, USA). Each MIC80 was determined using triplicate measurements for pools of 4 clones of each strain in three separate experiments.

Y2765 OE CauMDR1 = assay: MIC80 determination, strain Y2765; format: cell-based, S. cerevisiae; details: Saccharomyces cerevisiae
Experimental: as §1

Y2459 OE CaCYP51 CaCpr = assay: MIC80 determination, strain Y2459; format: cell-based, S. cerevisiae
Experimental: as §1

Y610 FHB1 = assay: MIC80 determination, C. albicans clinical isolate Y610 FHB1; format: cell-based; details: Candida albicans; C. albicans clinical isolate Y610 FHB1 (weakly expresses CaCDR1); pH 7, 24 h
Experimental: as §1

[1] = test system: Y2513 ScCYP51 Y140H mutant; assay: Agarose (disk) diffusion assay, strain Y2513; format: cell-based, S. cerevisiae; details: 10 nmol/disk, 30 °C, 48 h
Method in brief: (§2)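 Recombinant S. cerevisiae strains seeded at OD600 0.008 in CSM agarose overlay (0.6%, pH 6.8–7) on SD agarose. Racemic compounds applied at 10 nmol/disk on paper disks. Growth-inhibition zones assessed after 48 h at 30 °C.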

CYP2D6 = CYP2D6 (Homo sapiens, UniProt P10635); assay: biochemical; details: human liver drug metabolizing enzyme; read-out: CYP IC50 2D6
Sequence of CYP2D6 (P10635 whole entry): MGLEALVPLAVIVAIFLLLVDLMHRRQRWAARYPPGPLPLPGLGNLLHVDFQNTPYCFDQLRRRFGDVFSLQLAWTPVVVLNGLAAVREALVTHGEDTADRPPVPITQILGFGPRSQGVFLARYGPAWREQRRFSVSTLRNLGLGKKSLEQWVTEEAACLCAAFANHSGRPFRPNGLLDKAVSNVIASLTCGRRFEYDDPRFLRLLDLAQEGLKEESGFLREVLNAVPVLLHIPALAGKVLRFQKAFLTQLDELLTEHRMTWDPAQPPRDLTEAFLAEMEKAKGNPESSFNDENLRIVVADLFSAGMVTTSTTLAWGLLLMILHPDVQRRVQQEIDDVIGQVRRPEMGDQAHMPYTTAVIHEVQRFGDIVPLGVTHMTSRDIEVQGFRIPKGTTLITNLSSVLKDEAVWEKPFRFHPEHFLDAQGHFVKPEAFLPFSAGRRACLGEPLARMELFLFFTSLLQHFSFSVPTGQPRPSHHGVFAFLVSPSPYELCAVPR

Y71 SC5314 = assay: MIC80 determination, C. albicans clinical isolate Y71 SC5314; format: cell-based; details: Candida albicans
Experimental: as §1

[2] = test system: Y525 MFS efflux pump CaMDR1a overexpressed; assay: Agarose (disk) diffusion assay, strain Y525; format: cell-based, S. cerevisiae; details: 10 nmol/disk, 30 °C, 48 h
Method in brief: as §2

[3] = test system: Y2746 OE AfCYP51A AfCPR AfERG6; assay: MIC80 determination, strain Y2746; format: cell-based, S. cerevisiae; details: Saccharomyces cerevisiae
Experimental: as §1

Y2721 OE CpCYP51 = assay: MIC80 determination, strain Y2721; format: cell-based, S. cerevisiae
Experimental: as §1

Y2768 OE CauCYP51 Y132F = assay: MIC80 determination, strain Y2768; format: cell-based, S. cerevisiae
Experimental: as §1

[4] = test system: Y2411 azole sensitive control strain; assay: Agarose (disk) diffusion assay, strain Y2411; format: cell-based, S. cerevisiae; details: 10 nmol/disk, 30 °C, 48 h
Text: (§3) Final compounds were screened as racemic mixtures using agarose diffusion assays to visualize their inhibitory activity against a panel of recombinant S. cerevisiae strains i.e., S. cerevisiae strains expressing control levels of wild-type CYP51 (ScCYP51), overexpressed wild-type ScCYP51, overexpressed azole-resistant ScCYP51 Y140F/H mutations and overexpressed C. albicans efflux pumps MDR1a or CDR1B (Figure and Table S1).
(§4) The susceptibilities of S. cerevisiae and Candida species strains to azole compounds were observed as zones of growth inhibition in agarose diffusion assays. The disk diffusion assays were carried out as described by Keniya et al. Complete supplement mixture (CSM) agarose (0.6% agarose [wt/vol]; 20 mL of synthetic defined medium (SD); pH 6.8–7) was solidified in a rectangular Petri dish which was overlaid with CSM agarose (0.6% [wt/vol]; 5 mL; pH 6.8–7) seeded with yeast cells at an optical density (OD600) of 0.008 (118,000 cells per 1 mL of overlay). Azole compounds (10 nmol/disk) were applied to sterile BBL paper disks (Becton Dickinson Co., Sparks, MD) and placed on solidified overlays. Cell growth was assessed after incubation at 30 °C for 48 h.

CaCYP51 Y132H + K143R = CaCYP51 Y132H + K143R (Candida albicans, UniProt P10613, K143R/Y132H); assay: Reconstituted CYP51 activity assay, Y132H + K143R; format: biochemical, C. albicans; details: 1 μM CaCyp51, 50 μM lanosterol; duplicate, mean ± SD
Sequence of CaCYP51 Y132H + K143R (P10613 whole entry Y132H/K143R): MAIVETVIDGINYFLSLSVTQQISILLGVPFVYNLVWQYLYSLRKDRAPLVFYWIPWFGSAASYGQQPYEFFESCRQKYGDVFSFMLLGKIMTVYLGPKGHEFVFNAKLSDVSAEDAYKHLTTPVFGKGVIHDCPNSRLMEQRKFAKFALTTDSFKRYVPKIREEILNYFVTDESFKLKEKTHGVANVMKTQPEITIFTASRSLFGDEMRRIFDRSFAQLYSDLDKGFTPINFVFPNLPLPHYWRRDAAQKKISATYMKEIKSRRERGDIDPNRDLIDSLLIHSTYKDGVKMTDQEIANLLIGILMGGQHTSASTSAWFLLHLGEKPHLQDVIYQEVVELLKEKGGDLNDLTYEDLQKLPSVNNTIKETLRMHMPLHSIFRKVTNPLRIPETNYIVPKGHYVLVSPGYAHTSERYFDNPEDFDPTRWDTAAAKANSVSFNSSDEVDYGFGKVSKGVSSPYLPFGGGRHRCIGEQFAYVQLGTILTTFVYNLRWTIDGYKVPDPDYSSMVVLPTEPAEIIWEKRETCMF
Experimental: The reconstituted CYP51 assay previously described contained 1 μM CaCyp51, 2 μM Homo sapiens cytochrome P450 reductase and 50 μM lanosterol in a final volume of 500 μL. After the addition of azole in DMSO (2.5 μL), reactions were incubated at 37 °C for 10 min prior to initiation by the addition of 100 μL 20 mM β-NADPH-Na4. Sterol substrates and products were extracted with ethyl acetate, derivatized with N,O-bis(trimethylsilyl)-trifluoroacetamide (BSTFA)–trimethylchlorosilane (TMCS) (99:1) in the presence of anhydrous pyridine, and analyzed by GC/MS as described previously. IC50 determinations were performed in duplicate. Nonlinear regression of inhibitor concentration vs normalized response was calculated by GraphPad Prism 10.4.0 for Windows (GraphPad Software, Boston, Massachusetts, USA, www.graphpad.com).

2711 CnCYP51 OE CnCPR = assay: MIC80 determination, strain 2711; format: cell-based, S. cerevisiae
Experimental: as §1

Y2301 OE ScCYP51 Y140F = assay: MIC80 determination, strain Y2301; format: cell-based, S. cerevisiae; details: Saccharomyces cerevisiae
Experimental: as §1

Y2374 OE CgCYP51 = assay: MIC80 determination, strain Y2374; format: cell-based, S. cerevisiae; details: Saccharomyces cerevisiae
Experimental: as §1

CYP2C19 = CYP2C19 (Homo sapiens, UniProt P33261); assay: CYP IC50 profile, CYP2C19; format: biochemical; details: human liver drug metabolizing enzyme; read-out: CYP IC50 2C19
Sequence of CYP2C19 (P33261 whole entry, the tested form may be a part): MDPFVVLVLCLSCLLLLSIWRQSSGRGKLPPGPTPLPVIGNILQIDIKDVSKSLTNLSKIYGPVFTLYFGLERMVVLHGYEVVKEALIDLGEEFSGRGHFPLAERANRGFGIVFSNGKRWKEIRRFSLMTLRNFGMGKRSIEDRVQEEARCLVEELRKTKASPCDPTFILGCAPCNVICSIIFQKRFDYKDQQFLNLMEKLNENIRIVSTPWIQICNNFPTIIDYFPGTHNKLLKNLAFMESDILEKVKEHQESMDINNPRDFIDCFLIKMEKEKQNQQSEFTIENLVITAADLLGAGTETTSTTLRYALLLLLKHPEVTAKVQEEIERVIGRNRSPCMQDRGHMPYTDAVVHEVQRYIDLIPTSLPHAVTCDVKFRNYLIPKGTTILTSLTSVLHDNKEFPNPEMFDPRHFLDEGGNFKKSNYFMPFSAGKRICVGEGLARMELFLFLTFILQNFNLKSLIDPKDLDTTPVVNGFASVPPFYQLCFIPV

[5] = test system: Y2300 ScCYP51 overexpressed; assay: Agarose (disk) diffusion assay, strain Y2300; format: cell-based, S. cerevisiae; details: 10 nmol/disk, 30 °C, 48 h
Text: as §3, §4

Y2766 OE CauCDR1 = assay: MIC80 determination, strain Y2766; format: cell-based, S. cerevisiae; details: Saccharomyces cerevisiae
Experimental: as §1

[6] = test system: Y2747 OE AfCYP51B AfCPR AfERG6; assay: MIC80 determination, strain Y2747; format: cell-based, S. cerevisiae
Experimental: as §1

CYP3A4 = CYP3A4 (Homo sapiens, UniProt P08684); assay: CYP IC50 profile, CYP3A4; format: biochemical; details: human liver drug metabolizing enzyme; read-out: CYP IC50 3A4
Sequence of CYP3A4 (P08684 whole entry): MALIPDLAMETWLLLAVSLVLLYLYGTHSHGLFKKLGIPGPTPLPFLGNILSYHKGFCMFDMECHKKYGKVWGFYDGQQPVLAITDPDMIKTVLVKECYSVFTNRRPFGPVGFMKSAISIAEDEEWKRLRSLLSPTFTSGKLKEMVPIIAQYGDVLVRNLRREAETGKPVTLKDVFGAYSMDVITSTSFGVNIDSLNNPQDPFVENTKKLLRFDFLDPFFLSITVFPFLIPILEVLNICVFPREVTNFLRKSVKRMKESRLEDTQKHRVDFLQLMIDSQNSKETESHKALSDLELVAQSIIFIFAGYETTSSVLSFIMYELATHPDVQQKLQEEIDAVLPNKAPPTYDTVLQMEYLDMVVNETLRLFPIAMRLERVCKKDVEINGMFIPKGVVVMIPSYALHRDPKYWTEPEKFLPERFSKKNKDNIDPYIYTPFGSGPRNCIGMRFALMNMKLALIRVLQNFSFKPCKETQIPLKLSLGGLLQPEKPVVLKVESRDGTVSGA

Y570 OE CaCDR1B = assay: MIC80 determination, strain Y570; format: cell-based, S. cerevisiae
Experimental: as §1

[7] = Saccharomyces cerevisiae, 48 h, pH 6.8

**Q.** For O=C(NCC(O)(Cn1cncn1)c1ccc(F)cc1F)c1ccc(-c2ccc(OC(F)(F)F)cc2)cc1 (centres unmarked) [Compound 22, N-(2-(2,4-Difluorophenyl)-2-hydroxy-3-(1H-1,2,4-triazol-1-yl)propyl)-4’-(trifluoromethoxy)-[1,1’-biphenyl]-4-carboxamide], which MIC80 (Y2411 Endog. ScCYP51; strain Y2411 Endog. ScCYP51, SD pH 6.8, 30 °C, 48 h) is on record?
**A.** 0.03 ± 0.023 µM

**Q.** What about the MIC (Y2411 Endog. ScCYP51; supplement csv, read-out: MIC (nM) S. cerevisiae Y2411) of the same compound?
**A.** 30 ± 23 nM

**Q.** What about the MIC80 (Y2765 OE CauMDR1) of the same compound?
**A.** 0.059 ± 0.014 µM

**Q.** And the MIC80 (Y2459 OE CaCYP51 CaCpr; [7])?
**A.** 0.054 ± 0.022 µM

**Q.** What about the MIC (Y2459 OE CaCYP51 CaCpr; read-out: MIC (nM) C. albicans model Y2459) of the same compound?
**A.** 54 ± 22 nM

**Q.** And the MIC80 (Y610 FHB1)?
**A.** 0.153 ± 0.067 µM

**Q.** What about the “zone of growth inhibition (inhibitory activity in words)” value (from here on “zone of growth inhibition”) [1] of the same compound?
**A.** unaffected inhibition zone size

**Q.** And the IC50 (CYP2D6)?
**A.** > 25 µM

**Q.** And the MIC (Y71 SC5314; SC5314, supplement csv)?
**A.** 40 nM

**Q.** And the MIC80 (Y71 SC5314; C. albicans clinical isolate Y71 SC5314, pH 7, 24 h)?
**A.** 0.04 µM

**Q.** And the “zone of growth inhibition” value [2]?
**A.** no effect on its potency

**Q.** What about the MIC80 [3] of the same compound?
**A.** 12.4 µM

**Q.** And the MIC80 (Y2721 OE CpCYP51; Saccharomyces cerevisiae)?
**A.** 0.099 µM

**Q.** What about the MIC (Y2721 OE CpCYP51; read-out: MIC (nM) C. parapsilosis model Y2721) of the same compound?
**A.** 99 nM

**Q.** And the MIC (Y2768 OE CauCYP51 Y132F; Candidozyma auris, read-out: MIC (nM) C. auris model Y2768)?
**A.** 241 ± 38 nM

**Q.** What about the MIC80 (Y2768 OE CauCYP51 Y132F; Saccharomyces cerevisiae) of the same compound?
**A.** 0.241 ± 0.038 µM

**Q.** What about the “zone of growth inhibition” value [4] of the same compound?
**A.** high potency

**Q.** And the IC50 (CaCYP51 Y132H + K143R)?
**A.** 8.49 ± 1.27 µM

**Q.** What about the MIC80 (2711 CnCYP51 OE CnCPR; Saccharomyces cerevisiae) of the same compound?
**A.** 0.018 µM

**Q.** What about the MIC (2711 CnCYP51 OE CnCPR; read-out: MIC (nM) C. neoformans model Y2711) of the same compound?
**A.** 18 nM

**Q.** And the MIC80 (Y2301 OE ScCYP51 Y140F; 48 h, pH 6.8)?
**A.** 0.093 ± 0.046 µM

**Q.** What about the MIC (Y2301 OE ScCYP51 Y140F; read-out: MIC (nM) S. cerevisiae Y2301) of the same compound?
**A.** 93 ± 46 nM

**Q.** What about the MIC80 (Y2374 OE CgCYP51) of the same compound?
**A.** 0.101 µM

**Q.** And the MIC (Y2374 OE CgCYP51; read-out: MIC (nM) C. glabrate model Y2374)?
**A.** 101 nM

**Q.** And the IC50 (CYP2C19)?
**A.** 14.5 ± 2.23 µM

**Q.** What about the “zone of growth inhibition” value [5] of the same compound?
**A.** visible reduction in potency

**Q.** And the MIC80 (Y2766 OE CauCDR1)?
**A.** 20.9 µM

**Q.** And the MIC ([6]; Aspergillus fumigatus, read-out: MIC (nM) A. fumigatus model Y2747)?
**A.** 72 ± 29 nM

**Q.** What about the MIC80 ([6]; Saccharomyces cerevisiae) of the same compound?
**A.** 0.072 ± 0.029 µM

**Q.** What about the IC50 (CYP3A4) of the same compound?
**A.** 1.62 ± 0.23 µM

**Q.** And the MIC (Y570 OE CaCDR1B; Candida albicans, read-out: MIC (nM) C. albicans model Y570)?
**A.** 5800 nM

**Q.** And the MIC80 (Y570 OE CaCDR1B; [7])?
**A.** 5.8 µM
